# According to patent US9856218B2, “Inhibitors of PRMT5 and methods of their use” (Ohio State Innovation Foundation, priority 2013, dated 2018):
# Columns and labels:
# [1] = target: T1, affinity-purified hSWI/SNF associated Fl-PRMT7 (Homo sapiens, UniProt Q9NVM4); assay: Histone methyltransferase assay, [3H]SAM; type: biochemical; conditions: FIG. 33A
# T1 construct: made in house
# Description: (§1) Histone methylation was performed in the presence of DMSO, and 1-40 μM inhibitor compounds. […] After 1.5 h incubation at 30° C., reaction mixtures were spotted on Whatman P-81 filter paper, washed five times with 10 mL of […] sodium carbonate buffer (pH 9.0) to remove unincorporated [3H]SAM, and methylated peptides were detected by scintillation counting.
# as §1, with “HLCL-32, HLCL-10, HLCL-61 and HLCL-64.” for “inhibitor compounds.”, “After a” for “After”, “C.” for “C.,”, “[^3H]SAM,” for “[3H]SAM,”
# recombinant PRMT1 = target: T2, recombinant PRMT1 (Rattus norvegicus, UniProt Q63009); assay: Histone methyltransferase assay, [3H]SAM; type: biochemical
# T2 construct: purchased Millipore 14-474
# T2 sequence (Q63009 whole entry): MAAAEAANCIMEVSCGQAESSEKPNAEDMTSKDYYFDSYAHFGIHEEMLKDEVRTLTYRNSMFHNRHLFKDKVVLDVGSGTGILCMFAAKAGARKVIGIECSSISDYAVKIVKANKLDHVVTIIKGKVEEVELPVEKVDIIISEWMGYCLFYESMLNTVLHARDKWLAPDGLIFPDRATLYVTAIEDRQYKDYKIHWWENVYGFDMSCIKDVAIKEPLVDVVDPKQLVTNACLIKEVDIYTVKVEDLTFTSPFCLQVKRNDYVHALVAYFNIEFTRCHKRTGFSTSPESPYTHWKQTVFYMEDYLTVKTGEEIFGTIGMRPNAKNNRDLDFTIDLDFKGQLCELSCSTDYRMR
# Description: as §1
# as §1, with “HLCL-32, HLCL-10, HLCL-61 and HLCL-64.” for “inhibitor compounds.”, “After a” for “After”, “C.” for “C.,”, “[^3H]SAM,” for “[3H]SAM,”
# recombinant PRMT4 = target: T3, recombinant PRMT4 (Mus musculus, UniProt Q9WVG6); assay: Histone methyltransferase assay, [3H]SAM; type: biochemical; conditions: FIG. 33A
# T3 construct: purchased Millipore 14-575
# T3 sequence (Q9WVG6 whole entry): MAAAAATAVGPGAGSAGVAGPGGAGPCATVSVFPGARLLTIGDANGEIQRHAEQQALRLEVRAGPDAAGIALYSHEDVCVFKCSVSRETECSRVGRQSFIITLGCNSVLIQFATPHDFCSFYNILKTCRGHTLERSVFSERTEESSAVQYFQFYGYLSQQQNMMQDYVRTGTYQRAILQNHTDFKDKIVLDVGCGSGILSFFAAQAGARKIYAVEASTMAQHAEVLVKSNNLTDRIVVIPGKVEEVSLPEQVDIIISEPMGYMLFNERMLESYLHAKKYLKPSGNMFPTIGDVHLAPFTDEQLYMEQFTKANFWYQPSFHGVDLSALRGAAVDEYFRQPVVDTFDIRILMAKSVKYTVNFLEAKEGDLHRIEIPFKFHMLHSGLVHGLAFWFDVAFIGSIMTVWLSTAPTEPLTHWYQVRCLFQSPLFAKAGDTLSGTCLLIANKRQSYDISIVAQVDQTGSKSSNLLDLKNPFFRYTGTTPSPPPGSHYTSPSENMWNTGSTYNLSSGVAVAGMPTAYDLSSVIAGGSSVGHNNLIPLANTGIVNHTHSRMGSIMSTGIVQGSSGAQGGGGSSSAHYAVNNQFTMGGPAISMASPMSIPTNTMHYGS
# Description: as §1
# as §1, with “HLCL-32, HLCL-10, HLCL-61 and HLCL-64.” for “inhibitor compounds.”, “After a” for “After”, “C.” for “C.,”, “[^3H]SAM,” for “[3H]SAM,”
# [2] = 24 hr Quick MTD test, one mouse for each dose; type: in vivo
# Description: Controlled shRNA depletion was evaluated in a murine lymphoma model (Eμ-BRD2 (Chung, J., et al. (2013) J. Biological Chemistry 288, 35534-35547)) and human xenograft model of glioblastoma (Yan, F., et al (2014) Cancer Research In Press). Referring to FIG. 62A, controlled expression of a PRMT5 shRNA (solid line) but not control shRNA (dashed line) leads to 100% survival of mice engrafted primary DLBCL tumor cells. […] The maximum tolerated dose (MTD, single dose) was identified at 50 mg/kg (see Table 11 below). A sub-toxic dose (25 mg/kg) was used to treat FcMCL mice. Control mice developed peripheral blood and lymph node tumor burden starting day 20 post-engraftment.
# [3] = test system: AML cell lines and blasts; assay: Colony forming assay; type: cell-based; conditions: 100 nM, versus vehicle treated control cells
# Description: Clonogenic assays were set up by plating 1×10^3 cell/mL in semi-solid methylcellulose medium (MethoCult, Stem Cell Technologies). Colonies were counted after 10-14 days using an inverted microscope. Growth inhibition assays were measured using a colorimetric MTS assay: 5×10^4 cells were plated in 100 μL final volume in a 96-well plate in the presence of different concentrations of C12 for 24, 48 and 72 hours at 37° C. Afterwards, 20 μL of the CellTiter 96W AQueous One Solution Reagent, which contains tetrazolium compound [3-(4,5-[…])-5-(3-carboxymethoxyphenyl)-2-(4-sulfophenyl)-2H-tetrazolium, inner salt; MTS] and an electron coupling reagent (phenazine ethosulfate; PES) (Promega, Madison Wis.), was added to each well. Within 1-4 hours of incubation at 37° C., the optical density at 490 and 690 nm was measured. Cell viability was calculated with respect to the control samples and reference background wavelength at 690 nm. At least three independent experiments were performed. Growth curve assays were done by counting live cells using Trypan blue exclusion and inverted microscope for >12 days after plating the cells in 1×10^5 concentrations.
# PRMT5 inhibition by C12 was also effective in promoting apoptosis and differentiation.
# Colonies were counted 10-14 days after plating and each treatment was carried out in triplicates.
# [4] = test system: H4R3me2 binding to miR-29b regulatory site; assay: ChIP assay at miR-29b regulatory site; type: cell-based
# Description: Cross-linked chromatin was prepared by incubating cells in 1% formaldehyde for 10 min at room temperature and quenching with ice cold 1M Glycine. Cells were sonicated in 1% SDS lysis buffer and sheared chromatin was used to pull down protein/DNA complexes using antibodies against SP1, p65 (ChIP-grade Millipore), H4R3me2, H3R8me2 (Abcam) and RNA Pol II as positive control and normal IgG (Millipore) as negative control. Reverse cross-linked DNA was purified using QIAquick PCR Purification kit (Qiagen) and quantitative real-time PCR was carried out using SYBER green incorporation and primers designed for either FLT3 promoter region (sequenceF:R:) or miR-29b enhancer region (sequenceF:R:). DNA signals were calculated relative to input DNA amount and in comparison to expression values of negative control IgG.
# The regulatory region of pri-miR-29b was later checked for possible docking of PRMT5 (indirect binding) or H3R8me2 and/or H4R3me2 (direct binding) using ChIP assay with and without PRMT5 inhibition. […] The efficiency of miR-29b in modulating SP1 was confirmed by miR-29b gain- and loss-of function assays in AML cells, and significant suppression of SP1 in miR-29b overexpressing cells was detected, while SP1 was re-expressed when cells were treated with miR-29b knockdown (FIGS. 49A and 49B). […]
# [5] = test system: Mantle cell lymphoma cell line Jeko; assay: Induction of apoptosis, FITC-Annexin V-PI flow cytometry; type: cell-based
# Description: Analysis by flow cytometry. Cell viability was also measured by flow cytometry at 24 and 48 hr using annexin-V-FITC and propidium iodide (PI) according to the manufacturer's instructions (BD Biosciences).
# Following the synthesis of 14 compounds, the anti-proliferation and pro-apoptotic activities of those compounds was evaluated in Mantle cell lymphoma cell line Jeko. Replicate cultures of Jeko were incubated in DMSO and the compounds for 24, 48 and 72 hours. FITC-Annexin V-PI stained flow cytometry was used to detect the apoptotic population of cells (Table 4).
# multiple cell lines = assay: Proliferation of multiple cell lines (FIG. 59); type: cell-based; conditions: FIG. 59A-E
# Description: Proliferation of multiple cell lines was evaluated for CMPD 5, CMPD 7, HLCL61, HLCL-65, and HLCL-66 (FIG. 59A-E).
# T1 sequence (Q9NVM4 whole entry): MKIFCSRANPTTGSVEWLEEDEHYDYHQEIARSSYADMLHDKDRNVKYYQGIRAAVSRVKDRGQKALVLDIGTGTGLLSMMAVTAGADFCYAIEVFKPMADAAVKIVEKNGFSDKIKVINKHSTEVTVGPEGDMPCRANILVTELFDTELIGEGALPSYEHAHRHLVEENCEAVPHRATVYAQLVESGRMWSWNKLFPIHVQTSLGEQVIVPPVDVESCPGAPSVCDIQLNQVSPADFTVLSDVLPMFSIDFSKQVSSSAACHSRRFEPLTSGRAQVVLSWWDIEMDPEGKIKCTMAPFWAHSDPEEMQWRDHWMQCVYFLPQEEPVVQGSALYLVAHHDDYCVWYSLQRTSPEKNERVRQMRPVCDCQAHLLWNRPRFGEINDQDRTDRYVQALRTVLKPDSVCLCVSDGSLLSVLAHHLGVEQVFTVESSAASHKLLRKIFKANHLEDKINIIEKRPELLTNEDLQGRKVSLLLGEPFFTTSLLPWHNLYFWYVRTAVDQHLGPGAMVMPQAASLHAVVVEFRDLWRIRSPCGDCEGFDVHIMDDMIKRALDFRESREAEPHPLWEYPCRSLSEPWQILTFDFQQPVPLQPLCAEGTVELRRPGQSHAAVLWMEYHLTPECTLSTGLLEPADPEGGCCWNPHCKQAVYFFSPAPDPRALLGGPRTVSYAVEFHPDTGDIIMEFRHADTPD
structure (smiles),measurement,setting,value
CCn1c2ccccc2c2cc(CNCc3ccccc3OC)ccc21 [HLCL-61],effect on PRMT7 enzymatic activity,[1],ineffectiveness
same,inhibition of PRMT1 enzyme,"recombinant PRMT1; 10 μM, FIG. 17B",this non-specific activity is lost
same,inhibition of PRMT1 enzyme,"recombinant PRMT1; 20 μM and above, FIG. 17A",non-specific inhibition
same,effect on PRMT1 enzymatic activity,recombinant PRMT1; FIG. 33A,ineffectiveness
same,effect on PRMT4 enzymatic activity,recombinant PRMT4,ineffectiveness
same,survival after dosing,"[2]; IV-2.5 mg/kg, one mouse",Alive 24 hr after
same,survival after dosing,"[2]; mouse, in vivo, ip, 50 mg/kg, 24 h",Alive 24 hr after
same,clinical signs after dosing,"[2]; mouse, in vivo, ip, 100 mg/kg",still slow moving
same,survival after dosing,"[2]; mouse, in vivo, ip, 200 mg/kg, 24 h",Dead within 30 min
same,survival after dosing,"[2]; mouse, in vivo, iv, 5 mg/kg, 24 h",Alive 24 hr after
same,clinical signs after dosing (slow moving),"[2]; mouse, in vivo, iv, 10 mg/kg",dosing but slow
same,survival after dosing,"[2]; mouse, in vivo, iv, 10 mg/kg, 24 h",Alive 24 hr after
same,survival after dosing,"[2]; mouse, in vivo, iv, 20 mg/kg",Dead instantly after
same,colonies formed,[3],Significantly fewer colonies
same,binding of H4R3me2 to miR-29b regulatory site,[4],significant decrease in binding
same,EC50,[5]; 24 h,15 µM
same,EC50,[5]; 48 h,11 µM
same,"potency, proliferation of multiple cell lines",multiple cell lines,low micromolar range
